Data on 1 compound can be found in ChEMBL document CHEMBL2311470, “Heterobivalent dual-target probe for targeting GRP and Y1 receptors on tumor cells” (Bioorg Med Chem Lett, 2013).

Holding throughout (assay type): cell-based
Assay [1] concerns the target T1, Neuropeptide Y receptor type 1 (Homo sapiens, UniProt P25929).
T1 sequence (P25929 whole entry): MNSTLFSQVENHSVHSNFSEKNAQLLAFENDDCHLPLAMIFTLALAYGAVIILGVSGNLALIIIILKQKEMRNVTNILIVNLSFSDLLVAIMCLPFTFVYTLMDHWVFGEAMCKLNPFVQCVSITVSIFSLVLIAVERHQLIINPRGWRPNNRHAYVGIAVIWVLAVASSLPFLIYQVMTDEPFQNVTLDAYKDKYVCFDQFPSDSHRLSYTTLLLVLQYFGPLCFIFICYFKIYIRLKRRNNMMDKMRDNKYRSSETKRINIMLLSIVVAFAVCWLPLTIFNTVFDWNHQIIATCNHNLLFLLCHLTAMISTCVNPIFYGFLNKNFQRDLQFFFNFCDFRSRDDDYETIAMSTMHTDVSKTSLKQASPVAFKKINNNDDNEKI
Kind of assay: Binding affinity to Y1 receptor in human SK-N-MC cells.

The target in assay [2] is T1, Neuropeptide Y receptor type 1. The assay is described as follows: Displacement of [125I]-NPY from Y1 receptor in human MCF7 cells in presence of 1 uM BBN. A general note: Displacement assays read how much labelled ligand stays bound in the presence of the test substance.
Assay [3] addresses Gastrin-releasing peptide receptor (Homo sapiens, UniProt P30550). The assay is described as follows: Displacement of [125I]-Tyr4-BBN from human GRPR overexpressed in human T47D cells.

Chain of Gastrin-releasing peptide receptor (P30550 whole entry): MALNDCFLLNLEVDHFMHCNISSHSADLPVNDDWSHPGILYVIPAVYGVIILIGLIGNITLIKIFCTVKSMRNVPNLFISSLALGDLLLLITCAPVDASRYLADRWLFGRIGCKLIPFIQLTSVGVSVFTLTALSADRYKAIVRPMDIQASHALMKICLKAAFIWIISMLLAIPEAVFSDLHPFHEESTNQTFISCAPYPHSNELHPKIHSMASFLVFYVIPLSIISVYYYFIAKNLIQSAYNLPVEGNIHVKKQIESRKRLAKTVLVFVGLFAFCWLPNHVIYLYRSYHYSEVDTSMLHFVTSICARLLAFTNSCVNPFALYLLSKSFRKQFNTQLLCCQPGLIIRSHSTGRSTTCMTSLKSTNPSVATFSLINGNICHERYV

As for `CC[C@H](C)[C@H](N)C(=O)N[C@@H](CC(N)=O)C(=O)N1CCC[C@H]1C(=O)N[C@@H](CCCCNC(=O)COCCOCCNC(=O)[C@H](CCCCNC(=O)COCC(=O)NCCOCCOCC(=O)NCC(=O)Nc1ccc(C(=O)N[C@@H](CCC(N)=O)C(=O)N[C@@H](Cc2c[nH]c3ccccc23)C(=O)N[C@@H](C)C(=O)N[C@H](C(=O)NCC(=O)N[C@@H](Cc2cnc[nH]2)C(=O)N[C@@H](CC(C)C)C(=O)N[C@@H](CCSC)C(N)=O)C(C)C)cc1)NC(=O)CN1CCN(CC(=O)O)CCN(CC(=O)O)CCN(CC(=O)O)CC1)C(=O)N[C@@H](Cc1ccc(O)cc1)C(=O)N[C@@H](CCCN=C(N)N)C(=O)N[C@@H](CC(C)C)C(=O)N[C@@H](CCCN=C(N)N)C(=O)N[C@@H](Cc1ccc(O)cc1)C(N)=O`, the IC50 in assay [1] is 74 nM; in assay [2], 80 nM; in assay [3] it was 18 nM.

For orientation: IC50 means the concentration that gives 50% inhibition.
